Measured values taken from US20220009920A1 (GB005, Inc., priority 2020, published 2022).

What was measured:
PRKD2 = target: T1, PRKD2 (Homo sapiens, UniProt Q9BZL6); test: Large panel kinase profiling; assay type: biochemical; conditions: 1 μM test article, 1 mM ATP
T1 sequence (Q9BZL6 1-878): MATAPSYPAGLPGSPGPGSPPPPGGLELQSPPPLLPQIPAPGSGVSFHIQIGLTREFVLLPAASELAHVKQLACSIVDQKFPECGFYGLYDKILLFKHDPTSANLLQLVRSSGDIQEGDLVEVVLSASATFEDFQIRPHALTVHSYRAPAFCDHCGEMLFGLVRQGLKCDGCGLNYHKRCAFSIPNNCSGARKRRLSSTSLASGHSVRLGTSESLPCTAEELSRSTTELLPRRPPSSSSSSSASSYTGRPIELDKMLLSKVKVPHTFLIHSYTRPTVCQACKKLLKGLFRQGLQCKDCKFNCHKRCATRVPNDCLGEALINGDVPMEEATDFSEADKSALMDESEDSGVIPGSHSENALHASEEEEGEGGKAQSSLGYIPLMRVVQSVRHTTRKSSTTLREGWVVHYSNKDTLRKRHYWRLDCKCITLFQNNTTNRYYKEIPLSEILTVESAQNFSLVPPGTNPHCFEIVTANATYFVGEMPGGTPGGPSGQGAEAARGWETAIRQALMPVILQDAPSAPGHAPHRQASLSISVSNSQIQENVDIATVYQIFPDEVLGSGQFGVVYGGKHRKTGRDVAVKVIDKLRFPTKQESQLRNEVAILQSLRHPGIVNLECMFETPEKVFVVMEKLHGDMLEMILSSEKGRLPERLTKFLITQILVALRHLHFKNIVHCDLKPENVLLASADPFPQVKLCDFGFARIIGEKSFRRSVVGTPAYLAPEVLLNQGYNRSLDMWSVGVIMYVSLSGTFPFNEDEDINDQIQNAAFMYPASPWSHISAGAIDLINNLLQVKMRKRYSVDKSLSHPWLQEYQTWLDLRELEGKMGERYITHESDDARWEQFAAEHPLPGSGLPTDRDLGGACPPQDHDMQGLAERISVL
Method in brief: (§1)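 Continuous-read kinase assay: chelation-sensor peptide, 1 mM ATP, compound at 1 μM. Plates kept at 30° C.; fluorescence sampled at 1-min intervals (360/485 nm).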

MERTK/MER = target: T2, MERTK/MER (Homo sapiens, UniProt Q12866); test: Large panel kinase profiling; assay type: biochemical; conditions: 1 μM test article, 1 mM ATP
T2 construct: AssayQuant Technologies, Inc. (assay service)
T2 sequence (Q12866 21-999): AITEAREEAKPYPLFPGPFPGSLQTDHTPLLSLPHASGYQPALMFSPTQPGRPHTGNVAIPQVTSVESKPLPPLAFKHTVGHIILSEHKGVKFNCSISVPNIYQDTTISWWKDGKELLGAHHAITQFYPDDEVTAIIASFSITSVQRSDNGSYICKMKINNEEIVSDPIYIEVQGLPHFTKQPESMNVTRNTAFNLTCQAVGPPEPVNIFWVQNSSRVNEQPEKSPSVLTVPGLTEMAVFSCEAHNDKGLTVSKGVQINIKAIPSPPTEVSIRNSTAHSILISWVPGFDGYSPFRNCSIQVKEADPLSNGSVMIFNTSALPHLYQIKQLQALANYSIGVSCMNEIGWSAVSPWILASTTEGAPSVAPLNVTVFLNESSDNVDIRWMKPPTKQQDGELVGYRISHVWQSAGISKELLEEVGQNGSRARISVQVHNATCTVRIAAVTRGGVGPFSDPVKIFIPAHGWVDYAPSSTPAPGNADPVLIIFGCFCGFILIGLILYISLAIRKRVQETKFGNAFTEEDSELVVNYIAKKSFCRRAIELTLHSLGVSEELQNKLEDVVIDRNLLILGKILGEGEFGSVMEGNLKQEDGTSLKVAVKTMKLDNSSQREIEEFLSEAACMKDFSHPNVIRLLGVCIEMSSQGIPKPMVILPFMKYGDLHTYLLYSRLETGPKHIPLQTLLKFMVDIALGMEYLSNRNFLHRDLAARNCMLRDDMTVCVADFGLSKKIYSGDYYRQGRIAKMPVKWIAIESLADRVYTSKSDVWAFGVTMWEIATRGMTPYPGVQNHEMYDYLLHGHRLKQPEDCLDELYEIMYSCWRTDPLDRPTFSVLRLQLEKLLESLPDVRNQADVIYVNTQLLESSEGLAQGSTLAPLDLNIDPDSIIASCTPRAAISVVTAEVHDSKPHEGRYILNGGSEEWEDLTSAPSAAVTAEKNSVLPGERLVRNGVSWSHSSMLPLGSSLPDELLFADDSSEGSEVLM
Method in brief: as §1

Structure (SMILES)	inhibition at 1 µM (PRKD2)	inhibition at 1 µM (MERTK/MER)
C=CC(=O)N1CCCC(c2c(F)cc(C(N)=O)c3[nH]c4c(c23)CCCCC4)C1 (single isomer, unassigned) [Compound 5-6]	-14.2%	-0.8%
C=CC(=O)N1CCC[C@@H](c2c(F)cc(C(N)=O)c3[nH]c4c(c23)CCC4)C1 [Compound 10-2, (S)-8-(1-acryloylpiperidin-3-yl)-7-fluoro-1,2,3,4-tetrahydrocyclo-penta[b]indole-5-carboxamide]	-12.1%	14.8%
C=CC(=O)N1CCC[C@@H](c2c(F)cc(C(N)=O)c3[nH]c4c(c23)CC2(CC4)CC2)C1 [Compound 6-2, (S)-5-(1-acryloylpiperidin-3-yl)-6-fluoro-1,2,4,9-tetrahydrospiro[carbazole-3,1′-cyclopropane]-8-carboxamide]	-32.9%	12.4%
